# Results taken from patent publication US20200333324A1, “METHOD OF PREDICTING CLINICAL OUTCOME OF ANTICANCER AGENTS” (MITRA RXDX, INC., priority 2017, published 2020).
# Legend:
# Type in all cases: cell-based, human
# PBNCs = experiment: FACS analysis for CD25, CD127 and FOXP3 expression, PBNCs
# Experimental: The effect of treatment with Nivolumab and Pembrolizumab on CD25, CD127, and FOXP3 expression was then evaluated. Tumor sections or PBNCs from the same patient cultured for 3 days in the tumor microenvironment platform were treated with Pembrolizumab, Nivolumab, or IgG control for one day followed by FACS analysis for expression of CD25, CD127, and FOXP3.
# HNSCC tumor tissue [1] = experiment: IHC for CD8, PD-L1, PD-1 and FOXP3 positive cells in tumor microenvironment platform; details: T3; for number of PD-1^+ cells in the tumor microbed: vs IgG control
# Experimental: The effect of Pembrolizumab and Nivolumab on CD8^+ T cell tumor infiltration was then evaluated. Tumor sections from the same patient cultured for 72 hours in the tumor microenvironment platform were treated with Pembrolizumab, Nivolumab, or IgG as control and stained for H&E, Ki67, Caspase 3, and CD8 at day 3 in culture (T3). Baseline staining was determined at TO. […] To further elucidate the effects of the anti-PD-1 antibodies, FACS analysis was performed on tumor tissue from patient 2941 and patient 2942 treated with either Pembrolizumab, Nivolumab, or IgG control. […] By contrast, there was no effect of either Pembrolizumab or Nivolumab on CD8^+ T cell infiltration for patient 2942, further highlighting the differential response between individuals to PD-1 blockade. CD8^+ T cell infiltration was evaluated in the tumor microenvironment platform with tumor tissue from the same patient, and comparisons for control vs Nivo, control vs Pembro, Nivo vs Pembro, and control vs Nivo vs Pembro for multiple patients are shown in FIG. 6 (each line represents results from the tumor microenvironment platform cultured with tumor tissue from a single individual).
# The effect of Pembrolizumab and Nivolumab on the expression of immunoregulatory molecules, including PD-1 and FOXP3, in the tumor microenvironment platform tumor microbed was evaluated. Tumor sections from the same patient cultured for 3 days (72 hours) in the tumor microenvironment platform were treated with Pembrolizumab, Nivolumab, or IgG control and stained for CD8, FOXP3, and PD-1 at day 3 in culture (T3). Baseline staining was determined at TO. Results are shown in FIG. 7A for tumor sections from a predicted responder to Pembrolizumab or Nivolumab and FIG. 7B for a predicted non-responder to Pembrolizumab or Nivolumab, as characterized by M-score. There was in increase in the number of PD-1^+ cells in the tumor microbed for both Pembrolizumab and Nivolumab, which was to a greater degree in the case of Nivolumab, when compared to IgG control in the responder (FIG. 7A). There was no change for either Pembrolizumab and Nivolumab in the non-responder (FIG. 7B). The numbers of PD-L1^+ tumor cells, PD-1^+ T cells, FOXP3^+ T-regulatory cells, and CD8^+ T cells were evaluated using the tumor microenvironment platform with tumor tissue from the same patient in Nivolumab, Pembrolizumab, and control conditions, and are summarized in Table 3. Comparisons for control vs Nivo, control vs Pembro, Nivo vs Pembro, and control vs Nivo vs Pembro for multiple patients are shown in FIG. 8 (each line represents results from the tumor microenvironment platform cultured with tumor tissue from a single individual).
# HNSCC tumor tissue [2] = experiment: M-score clinical outcome predictor: tumor microenvironment platform assays (WST-1, LDH, ATP, glucose uptake, Caspase 3/8, Ki67, H&E) input into machine-trained algorithm; parameters: scale not given here
# Description: Utilizing primary and late stage HNSCC patient samples (n=16) we interrogated phenotypic response to both Pembrolizumab (KEYTRUDA) and Nivolumab (OPDIVO), two FDA-approved PD-1 inhibitors, as single agents on the tumor microenvironment platform with tumor tissue from the same patient. To do this, we assayed tumor proliferation (Ki67) and apoptosis (active caspase-3), in addition to using a comprehensive panel of immunological assays to evaluate changes in the immune compartment (CD8, CD45, FOXP3, CXCR4, CD68, PDL1, PD1) and cytokine profile (IL6, IL8, IFN-g and IL12).
substance,measurement,setting,value
Pembrolizumab,CD25^+/FOXP3^− PBMCs (% total cells),"PBNCs; Non-Responder, control 3.67",2.8 % total cells
same,CD25^+/CD127^+ PBMCs (% total cells),"PBNCs; Non-Responder, control 14.6",25.6 % total cells
same,CD25^+/CD127^− PBMCs (% total cells),"PBNCs; Non-Responder, control 15.1",7.71 % total cells
same,CD25^−/FOXP3^− PBMCs (% total cells),"PBNCs; Non-Responder, control 18.2",10.9 % total cells
same,CD25^+/FOXP3^+ PBMCs (% total cells),"PBNCs; Non-Responder, control 22.1",29.1 % total cells
same,CD25^−/CD127^+ PBMCs (% total cells),"PBNCs; Non-Responder, control 26.2",45.3 % total cells
same,CD25^−/CD127^− PBMCs (% total cells),"PBNCs; Non-Responder, control 44.1",21.4 % total cells
same,CD25^− FOXP3^+ PBMCs (% total cells),"PBNCs; Non-Responder, control 56.0",57.2 % total cells
same,CD25^+/FOXP3^− PBMCs (% total cells),"PBNCs; Responder, control 3.04",3.94 % total cells
same,CD25^+/CD127^− PBMCs (% total cells),"PBNCs; Responder, control 11.7",7.77 % total cells
same,CD25^+/CD127^+ PBMCs (% total cells),"PBNCs; Responder, control 16.8",20.4 % total cells
same,CD25^+/FOXP3^+ PBMCs (% total cells),"PBNCs; Responder, control 21.7",22.1 % total cells
same,CD25^−/FOXP3^− PBMCs (% total cells),"PBNCs; Responder, control 23.2",20.0 % total cells
same,CD25^−/CD127^+ PBMCs (% total cells),"PBNCs; Responder, control 24.8",46.4 % total cells
same,CD25^−/CD127^− PBMCs (% total cells),"PBNCs; Responder, control 46.6",25.4 % total cells
same,CD25^− FOXP3^+ PBMCs (% total cells),"PBNCs; Responder, control 52.1",54.0 % total cells
same,# cells/field PD-1^+,"HNSCC tumor tissue [1]; Patient ID 2916, control 0",0 cells/field
same,# cells/field PD-L1^+,"HNSCC tumor tissue [1]; Patient ID 2916, control 1",2 cells/field
same,# cells/field FOXP3^+,"HNSCC tumor tissue [1]; Patient ID 2916, control 3",2 cells/field
same,# cells/field CD8^+,"HNSCC tumor tissue [1]; Patient ID 2916, control 20",18 cells/field
same,# cells/field PD-1^+,"HNSCC tumor tissue [1]; Patient ID 2918, control 2",0 cells/field
same,# cells/field FOXP3^+,"HNSCC tumor tissue [1]; Patient ID 2918, control 3",3 cells/field
same,# cells/field CD8^+,"HNSCC tumor tissue [1]; Patient ID 2918, control 10",14 cells/field
same,# cells/field PD-L1^+,"HNSCC tumor tissue [1]; Patient ID 2918, control 10",10 cells/field
same,# cells/field PD-1^+,"HNSCC tumor tissue [1]; Patient ID 2926, control 0",0 cells/field
same,# cells/field PD-L1^+,"HNSCC tumor tissue [1]; Patient ID 2926, control 3",1 cells/field
same,# cells/field FOXP3^+,"HNSCC tumor tissue [1]; Patient ID 2926, control 4",10 cells/field
same,# cells/field CD8^+,"HNSCC tumor tissue [1]; Patient ID 2926, control 25",5 cells/field
same,# cells/field PD-1^+,"HNSCC tumor tissue [1]; Patient ID 2928, control 0",0 cells/field
same,# cells/field PD-L1^+,"HNSCC tumor tissue [1]; Patient ID 2928, control 0",1 cells/field
same,# cells/field CD8^+,"HNSCC tumor tissue [1]; Patient ID 2928, control 4",1 cells/field
same,# cells/field FOXP3^+,"HNSCC tumor tissue [1]; Patient ID 2928, control 4",1 cells/field
same,# cells/field CD8^+,"HNSCC tumor tissue [1]; Patient ID 2939, control 0",5 cells/field
same,# cells/field PD-1^+,"HNSCC tumor tissue [1]; Patient ID 2939, control 0",0 cells/field
same,# cells/field FOXP3^+,"HNSCC tumor tissue [1]; Patient ID 2939, control 1",1 cells/field
same,# cells/field PD-L1^+,"HNSCC tumor tissue [1]; Patient ID 2939, control 10",15 cells/field
same,# cells/field PD-1^+,"HNSCC tumor tissue [1]; Patient ID 2941, control 0",1 cells/field
same,# cells/field FOXP3^+,"HNSCC tumor tissue [1]; Patient ID 2941, control 3",4 cells/field
same,# cells/field PD-L1^+,"HNSCC tumor tissue [1]; Patient ID 2941, control 3",6 cells/field
same,# cells/field CD8^+,"HNSCC tumor tissue [1]; Patient ID 2941, control 5",7 cells/field
same,# cells/field PD-1^+,"HNSCC tumor tissue [1]; Patient ID 2942, control 0",0 cells/field
same,# cells/field PD-L1^+,"HNSCC tumor tissue [1]; Patient ID 2942, control 0",0 cells/field
same,# cells/field CD8^+,"HNSCC tumor tissue [1]; Patient ID 2942, control 3",2 cells/field
same,# cells/field FOXP3^+,"HNSCC tumor tissue [1]; Patient ID 2942, control 3",2 cells/field
same,# cells/field FOXP3^+,"HNSCC tumor tissue [1]; Patient ID 2948, control 1",3 cells/field
same,# cells/field PD-1^+,"HNSCC tumor tissue [1]; Patient ID 2948, control 1",0 cells/field
same,# cells/field PD-L1^+,"HNSCC tumor tissue [1]; Patient ID 2948, control 10",1 cells/field
same,# cells/field CD8^+,"HNSCC tumor tissue [1]; Patient ID 2948, control 20",25 cells/field
same,# cells/field PD-1^+,"HNSCC tumor tissue [1]; Patient ID 2949, control 1",6 cells/field
same,# cells/field FOXP3^+,"HNSCC tumor tissue [1]; Patient ID 2949, control 5",3 cells/field
same,# cells/field PD-L1^+,"HNSCC tumor tissue [1]; Patient ID 2949, control 20",28 cells/field
same,# cells/field CD8^+,"HNSCC tumor tissue [1]; Patient ID 2949, control 50",40 cells/field
same,# cells/field PD-1^+,"HNSCC tumor tissue [1]; Patient ID 2956, control 0",0 cells/field
same,# cells/field CD8^+,"HNSCC tumor tissue [1]; Patient ID 2956, control 1",1 cells/field
same,# cells/field PD-L1^+,"HNSCC tumor tissue [1]; Patient ID 2956, control 2",0 cells/field
same,# cells/field FOXP3^+,"HNSCC tumor tissue [1]; Patient ID 2956, control 8",1 cells/field
same,# cells/field PD-1^+,"HNSCC tumor tissue [1]; Patient ID 2963, control 0",0 cells/field
same,# cells/field CD8^+,"HNSCC tumor tissue [1]; Patient ID 2963, control 6",2 cells/field
same,# cells/field FOXP3^+,"HNSCC tumor tissue [1]; Patient ID 2963, control 10",2 cells/field
same,# cells/field PD-L1^+,"HNSCC tumor tissue [1]; Patient ID 2963, control 12",10 cells/field
same,# cells/field PD-1^+,"HNSCC tumor tissue [1]; Patient ID 2978, control 0",0 cells/field
same,# cells/field FOXP3^+,"HNSCC tumor tissue [1]; Patient ID 2978, control 1",2 cells/field
same,# cells/field PD-L1^+,"HNSCC tumor tissue [1]; Patient ID 2978, control 1",1 cells/field
same,# cells/field CD8^+,"HNSCC tumor tissue [1]; Patient ID 2978, control 12",22 cells/field
same,# cells/field PD-1^+,"HNSCC tumor tissue [1]; Patient ID 2979, control 0",0 cells/field
same,# cells/field FOXP3^+,"HNSCC tumor tissue [1]; Patient ID 2979, control 2",3 cells/field
same,# cells/field PD-L1^+,"HNSCC tumor tissue [1]; Patient ID 2979, control 5",8 cells/field
same,# cells/field CD8^+,"HNSCC tumor tissue [1]; Patient ID 2979, control 25",10 cells/field
same,# cells/field PD-1^+,"HNSCC tumor tissue [1]; Patient ID 2980, control 0",0 cells/field
same,# cells/field FOXP3^+,"HNSCC tumor tissue [1]; Patient ID 2980, control 1",2 cells/field
same,# cells/field PD-L1^+,"HNSCC tumor tissue [1]; Patient ID 2980, control 8",2 cells/field
same,# cells/field CD8^+,"HNSCC tumor tissue [1]; Patient ID 2980, control 30",8 cells/field
same,# cells/field FOXP3^+,"HNSCC tumor tissue [1]; Patient ID 2981, control 0",1 cells/field
same,# cells/field PD-1^+,"HNSCC tumor tissue [1]; Patient ID 2981, control 0",0 cells/field
same,# cells/field PD-L1^+,"HNSCC tumor tissue [1]; Patient ID 2981, control 0",0 cells/field
same,# cells/field CD8^+,"HNSCC tumor tissue [1]; Patient ID 2981, control 1",12 cells/field
same,number of PD-1^+ cells in the tumor microbed,HNSCC tumor tissue [1]; predicted non-responder,no change
same,number of PD-1^+ cells in the tumor microbed,"HNSCC tumor tissue [1]; predicted responder, to a greater degree in the case of Nivolumab",increase
same,M-score,HNSCC tumor tissue [2]; Patient ID 2918,13
same,M-score,HNSCC tumor tissue [2]; Patient ID 2928,16
same,M-score,HNSCC tumor tissue [2]; Patient ID 2941,38
same,M-score,HNSCC tumor tissue [2]; Patient ID 2948,4
same,M-score,HNSCC tumor tissue [2]; Patient ID 2949,6
same,M-score,HNSCC tumor tissue [2]; Patient ID 2956,6
same,M-score,HNSCC tumor tissue [2]; Patient ID 2978,22
same,M-score,HNSCC tumor tissue [2]; Patient ID 2981,7
